Assay results published in patent EP3263567A1, “CARBOXAMIDE-SUBSTITUTED PYRAZOLES AND TRI(HETERO)ARYL-PYRAZOLES FOR USE IN METHODS OF TREATING AND / OR PREVENTING CARDIOVASCULAR DISEASES AND / OR COMORBIDITIES THEREOF” (AiCuris Anti-infective Cures GmbH, priority 2016, dated 2018).

Assays:
[1] = target: T1, human HCN4 currents (Homo sapiens, UniProt Q9Y3Q4); experiment: Whole-cell patch-clamp, HCN4 steady state currents in transiently transfected CHO cells; type: cell-based; conditions: for IC50: CHO cells transiently expressing HCN4, steady state current at -120 mV, n=3, read-out: IC50 (inhibition of HCN4 currents); for inhibition of the HCN4 current (result in words): tested first at 10 µM
T1 construct: CHO cells transiently expressing the HCN4 channel; expressed in transfected cells; host or cells: CHO (ATCC CCL-61), transiently transfected
T1 sequence (Q9Y3Q4 1-1203): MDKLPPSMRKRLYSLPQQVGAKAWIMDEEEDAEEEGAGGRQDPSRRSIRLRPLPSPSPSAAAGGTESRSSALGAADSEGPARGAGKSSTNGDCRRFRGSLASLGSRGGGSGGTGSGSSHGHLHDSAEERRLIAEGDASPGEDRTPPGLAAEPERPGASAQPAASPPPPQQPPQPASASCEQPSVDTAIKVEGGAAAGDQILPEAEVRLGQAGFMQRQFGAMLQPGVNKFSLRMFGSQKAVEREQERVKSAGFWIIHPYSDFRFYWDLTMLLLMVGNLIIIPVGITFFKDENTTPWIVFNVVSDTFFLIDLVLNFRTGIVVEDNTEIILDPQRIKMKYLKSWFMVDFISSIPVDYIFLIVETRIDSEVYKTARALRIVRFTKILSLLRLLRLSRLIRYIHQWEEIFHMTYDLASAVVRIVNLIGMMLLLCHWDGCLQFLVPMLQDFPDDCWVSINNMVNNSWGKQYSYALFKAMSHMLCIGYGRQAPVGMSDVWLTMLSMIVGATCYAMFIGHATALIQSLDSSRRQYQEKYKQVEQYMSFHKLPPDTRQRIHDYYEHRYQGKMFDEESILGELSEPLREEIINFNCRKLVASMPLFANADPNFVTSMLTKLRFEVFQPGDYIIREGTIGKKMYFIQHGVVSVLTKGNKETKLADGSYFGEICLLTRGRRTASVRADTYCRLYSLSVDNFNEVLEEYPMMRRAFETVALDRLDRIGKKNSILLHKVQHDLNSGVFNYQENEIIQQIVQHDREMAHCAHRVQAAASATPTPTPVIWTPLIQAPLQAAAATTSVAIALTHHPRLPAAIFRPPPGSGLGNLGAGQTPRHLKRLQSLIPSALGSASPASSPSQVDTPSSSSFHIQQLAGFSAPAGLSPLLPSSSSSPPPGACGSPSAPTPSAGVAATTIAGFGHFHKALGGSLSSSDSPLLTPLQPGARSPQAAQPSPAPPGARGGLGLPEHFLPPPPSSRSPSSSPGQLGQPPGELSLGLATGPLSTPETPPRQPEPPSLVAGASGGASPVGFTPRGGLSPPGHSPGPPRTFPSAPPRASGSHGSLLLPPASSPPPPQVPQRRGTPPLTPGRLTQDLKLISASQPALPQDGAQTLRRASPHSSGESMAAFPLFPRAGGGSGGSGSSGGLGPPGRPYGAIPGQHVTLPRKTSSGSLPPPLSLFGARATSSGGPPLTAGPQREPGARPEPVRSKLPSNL
From the text: The following six compounds in accordance with the invention: • Compound A: [drawing 81] i.e. 4-[5-[3-Chloro-5-(trifluoromethoxy) phenyl]-1-(pyridin-3-yl)-1H-pyrazol-3-yl]-5,6-dihydro-7H-pyrrolo[3,4-d]pyrimidin-7-one, • Compound B: [drawing 82] i.e. 4-[5-[3-Chloro-5-(trifluoromethoxy) phenyl]-1-(pyridin-3-yl)-1H-pyrazol-3-yl]-2,3-dihydro-1H-pyrrolo[3,4-c] pyridin-1-one, • Compound C: [drawing 83] i.e. 4-[5-[3-Chloro-5-(trifluoromethoxy) phenyl]-1-(pyridin-3-yl)-1H-pyrazol-3-yl]-5,6-dihydro-2-methyl-7H-pyrrolo[3, 4-d] pyrimidin-7-one, • Compound D: [drawing 84] i.e. 3-Amino-4-[5-[3-chloro-5-(trifluoromethoxy) phenyl]-1-(pyridin-3-yl)-1H-pyrazol-3-yl-carbonyl]-1,5-dihydro-2H-pyrrol-2-one, • Compound E: [drawing 85] i.e. 1-[[5-[3-Chloro-5-(trifluoromethoxy) phenyl]-1-(pyridin-3-yl)-1H-pyrazol-3-yl]carbonyl]-imidazolidin-4-one, • Compound F: [drawing 86] i.e. 4-[5-[3-Chloro-5-(trifluoromethoxy) phenyl]-1-(3-cyano-4-fluoro-phenyl)-1H-pyrazol-3-yl]-5,6-dihydro-7H-pyrrolo[3,4-d]pyrimidin-7-one, were tested on their effects on human HCN4 currents recorded from transiently transfected CHO cells, in direct comparison to the reference compounds described below: • Ivabradine: [drawing 87] i.e. ((S)-3-{3-[([3,4-Dimethoxy-bicyclo [4.2.0]octa-1,3,5-trien-7-yl]methyl)methylamino]propyl}-1,3,4,5-tetrahydro-7,8-dimethoxy-2H-3-benzazepin-2-on), • Compound X: [drawing 88] i.e. 1-[[1-(3-Chloro-4-fluorophenyl)-5-(3-chloro-5-fluorophenyl)-1 H-pyrazol-3-yl]carbonyl]-imidazolidin-4-one, • Compound Y: [drawing 89] i.e. N-(2-Amino-2-oxoethyl)-1-(3-chloro-4-fluorophenyl)-5-(3-chloro-5-fluorophenyl)-1H-pyrazole-3-carboxamide.
The pyrazole compounds X and Y as depicted above, and having structural similarities to the compounds of general formula (I) of the invention, were also tested to investigate whether the pure If current inhibitory effect of the compounds of the invention also extend to structurally closely related compounds.
Dependent on their solubility in the assay buffer, the compounds were tested first at one concentration of 10 µM (compound A, compound Y, compound X, compound B, compound E, compound F and ivabradine) or 1 µM for (compound C and D). If the current blocking of HCN4 at this concentration was higher than 50% the compounds were tested again at five concentrations of a half-logarithmic dilution series starting with either 10 µM or 1 µM as mentioned above (meaning 0.1 µM, 0.3 µM, 1 µM, 3 µM, and 10 µM or 0.01 µM, 0.03 µM 0.1 µM, 0.3 µM and 1 µM).
Test system: CHO cells transiently expressing the HCN4 channel; NCBI Reference Sequence: NP005468.1 (HCN4 channel); Source CHO: ATCC, CCL-61 LGC Standards GmbH, Wesel, Germany were used.
In 35 mm culture dishes CHO cells were seeded at a density allowing single cells to be recorded on the dish holder of the microscope and continuously perfused (at approximately 1 mL/min) with the bath solution described above. All solutions applied to cells including the pipette solution were maintained at room temperature (19 °C - 30 °C). After formation of a Gigaohm seal between the patch electrodes and individual cells (pipette resistance range: 2.0 MΩ - 7.0 MΩ; seal resistance range: > 1 GΩ) the cell membrane across the pipette tip was ruptured to assure electrical access to the cell interior (whole-cell patch-configuration). As soon as a stable seal was established, steady state currents were measured upon the hyperpolarization to -120 mV (2000 ms) from a holding potential of -40 mV. This voltage protocol (as shown in the scheme below) did run 5 times for control conditions and at least ten times for each test concentration. Pulse intervals were 20 s (0.05 Hz). If current amplitude was judged to be too low for measurement, another cell was recorded.
Once control recordings have been accomplished, cells were continuously perfused with bath solution containing the tested compounds as detailed above, 0.1 % DMSO or 100 µM ZD7288. […]

[2] = target: T2, HCN4 (Homo sapiens, UniProt Q9Y3Q4); conditions: literature value, Stieber et al. (2006) Mol Pharmacol 69, 1328-1337; read-out: IC50 mean (block of HCN4 channels); cited from earlier work
T2 sequence (Q9Y3Q4 1-1203): T1 sequence (Q9Y3Q4 1-1203)

[3] = Pharmacokinetics after single oral administration of formulations to dogs; conditions: 30 mg/kg single oral dose
Procedure: (§1) A single oral dose of 30 or 100 mg/kg was applied to dogs. Pharmacokinetic parameters were assessed and compared.
Male and female Beagle dogs.
(§2) Plasma concentrations were obtained by LC-MS/MS measurements.

[4] = in vivo; conditions: dog, po, 30 mg/kg
Procedure: as §1
Male and female Beagle dogs.
as §2

Question: Which results are given for `O=C1NCc2c1ccnc2-c1cc(-c2cc(Cl)cc(OC(F)(F)F)c2)n(-c2cccnc2)n1` [Compound B, 4-[5-[3-Chloro-5-(trifluoromethoxy)phenyl]-1-(pyridin-3-yl)-1H-pyrazol-3-yl]-2,3-dihydro-1H-pyrrolo[3,4-c] pyridin-1-one]?
Answer: block of HCN4 currents at a single concentration ([1]; 0.1 µM): almost completely; IC50 [1]: 30 to 580 nM

Question: With `Cc1nc2c(c(-c3cc(-c4cc(Cl)cc(OC(F)(F)F)c4)n(-c4cccnc4)n3)n1)CNC2=O` [Compound C, 4-[5-[3-Chloro-5-(trifluoromethoxy)phenyl]-1-(pyridin-3-yl)-1H-pyrazol-3-yl]-5,6-dihydro-2-methyl-7H-pyrrolo[3,4-d] pyrimidin-7-one] as the compound, how does the IC50 [1] read?
Answer: The IC50 was 30 to 580 nM.

Question: With `NC1=C(C(=O)c2cc(-c3cc(Cl)cc(OC(F)(F)F)c3)n(-c3cccnc3)n2)CNC1=O` [Compound D, 3-Amino-4-[5-[3-chloro-5-(trifluoromethoxy)phenyl]-1-(pyridin-3-yl)-1H-pyrazol-3-yl-carbonyl]-1,5-dihydro-2H-pyrrol-2-one] as the compound, how does the IC50 [1] read?
Answer: Its IC50 is 30 to 580 nM.

Question: For `O=C1CN(C(=O)c2cc(-c3cc(Cl)cc(OC(F)(F)F)c3)n(-c3cccnc3)n2)CN1` [Compound E, 1-[[5-[3-Chloro-5-(trifluoromethoxy)phenyl]-1-(pyridin-3-yl)-1H-pyrazol-3-yl]carbonyl]-imidazolidin-4-one], which IC50 [1] is on record?
Answer: The IC50 was 30 to 580 nM.

Question: With `N#Cc1cc(-n2nc(-c3ncnc4c3CNC4=O)cc2-c2cc(Cl)cc(OC(F)(F)F)c2)ccc1F` [Compound F, 4-[5-[3-Chloro-5-(trifluoromethoxy)phenyl]-1-(3-cyano-4-fluoro-phenyl)-1H-pyrazol-3-yl]-5,6-dihydro-7H-pyrrolo[3,4-d]pyrimidin-7-one] as the compound, how does the IC50 [1] read?
Answer: The IC50 was 30 to 580 nM.

Question: With `O=C1CN(C(=O)c2cc(-c3cc(F)cc(Cl)c3)n(-c3ccc(F)c(Cl)c3)n2)CN1` [Compound X, 1-[[1-(3-Chloro-4-fluorophenyl)-5-(3-chloro-5-fluorophenyl)-1 H-pyrazol-3-yl]carbonyl]-imidazolidin-4-one, reference compound] as the compound, how does the “inhibition of the HCN4 current (result in words)” value [1] read?
Answer: Its value is “not identified as inhibitors of the HCN4 current”.

Question: Which “inhibition of the HCN4 current (result in words)” value [1] does the source give for `NC(=O)CNC(=O)c1cc(-c2cc(F)cc(Cl)c2)n(-c2ccc(F)c(Cl)c2)n1` [Compound Y, N-(2-Amino-2-oxoethyl)-1-(3-chloro-4-fluorophenyl)-5-(3-chloro-5-fluorophenyl)-1H-pyrazole-3-carboxamide, reference compound] here?
Answer: Its value is “not identified as inhibitors of the HCN4 current”.

Question: Which IC50 [2] does the source give for `COc1cc2c(cc1OC)CC(=O)N(CCCN(C)C[C@H]1Cc3cc(OC)c(OC)cc31)CC2` [Ivabradine, (S)-3-{3-[([3,4-Dimethoxy-bicyclo [4.2.0]octa-1,3,5-trien-7-yl]methyl)methylamino]propyl}-1,3,4,5-tetrahydro-7,8-dimethoxy-2H-3-benzazepin-2-on, reference compound] here?
Answer: Its IC50 is ~2150 nM.

Question: What about the IC50 [1] of the same compound?
Answer: The IC50 was 4460 nM.

Question: With `CCN(c1ccccc1)c1cc(NC)[n+](C)c(C)n1` [ZD7288, reference compound] as the compound, how does the “relative steady state current (HCN4)” value ([1]; 100 µM, mean ± SEM of n=3 cells) read?
Answer: Its value is 12.89 ± 1.19%.

Question: For `O=C1NCc2c1ncnc2-c1cc(-c2cc(Cl)cc(OC(F)(F)F)c2)n(-c2cccnc2)n1` [ethane sulfonate], which vomiting [3] is on record?
Answer: The vomiting was “two to three out of four animals”.

Question: What about the AUC(0-inf) [4] of the same compound?
Answer: Its AUC(0-inf) is 218 µg·h/mL.
